Structures can show the parent of a compound that is named as a salt.
What follows are compounds tested on MTT (mouse pheochromocytoma) (assay: IC50 of cell viability (ATP content)). Settings: (24 or 48 h).
Procedure, shortened: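 MTT mouse pheochromocytoma cells (5 µl of 200,000 cells/ml per well, white 1536-well plates, DMEM with 5% FBS and 1% horse serum) were cultured overnight at 37°C, 5% CO2. They then received 23 nl library compound in DMSO by pintool at 8 concentrations (final 0.5 nM to 46 µM) for 24 or 48 hrs. CellTiter-Glo ATP luminescence was read after 15 minutes. Signals were normalised to positive-control (100% inhibition) and DMSO (0%) wells, and IC50 came from a four-parameter logistic fit.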

IC50 of cell viability | SMILES
> 46 µM | COc1ccc([S+](=O)([O-])N2c3ccc(Cl)cc3[C@](O)(c3ccccc3Cl)[C@@H]2C(=O)N2CCC[C@H]2C(N)=O)cc1OC [RELCOVAPTANUM]
> 46 µM | Cc1c(Cl)cccc1Nc1ncccc1C(=O)O [CLONIXINUM]
> 46 µM | NCCCC(O)(P(=O)(O)O)P(=O)(O)O [Alendronate sodium]
> 46 µM | Nc1nc(NC2CC2)c2ncn([C@H]3C=C[C@@H](CO)C3)c2n1 [ABACAVIR SULFATE]
> 46 µM | CN1C(CCl)Nc2cc(Cl)c([S+](N)(=O)[O-])cc2[S+]1(=O)[O-] (stereo unspecified) [METHYCLOTHIAZIDE]
> 46 µM | CCOC(=O)c1ccccc1O [ETHYL SALICYLATE]
> 46 µM | N=C1NC(=N)c2cc3ccccc3cc21 [1,3-Diiminobenz[f]isoindoline]
> 46 µM | Clc1ccc(Nc2nnc(Cc3ccncc3)c3ccccc23)cc1 [Vatalanib Dihydrochloride]
> 46 µM | Cc1c(C)c2c(c(C)c1O)CC[C@@](C)(CCC[C@H](C)CCC[C@H](C)CCCC(C)C)O2 [Alpha-Vitamin E]
> 46 µM | COc1ccccc1OCC1CNC(=O)O1 (stereo unspecified) [Mephenoxalone]
> 46 µM | CC(=O)OCC1=C(C(=O)O)N2C(=O)[C@@H](NC(=O)Cc3cccs3)[C@H]2SC1 [Cefalotina]
> 46 µM | CN(N=O)C(=O)N[C@H]1[C@H](O)[C@H](O)[C@H](CO)O[C@@H]1O [Streptozotocin]
> 46 µM | CC(C)(C#N)c1cc(Cn2cncn2)cc(C(C)(C)C#N)c1 [Anastrozole]
> 46 µM | O=C(CCCCCCCCC#CI)Oc1ccccc1 [Phenyl 11-iodo-10-undecynoate]
> 46 µM | CCCCO [n-Butyl alcohol]
> 46 µM | O=C(O)CCNC(=O)c1ccccc1 [BETAMIPRON]
> 46 µM | CCOC(=O)c1ccc(N)cc1 [Benzocaine]
> 46 µM | CN(C/C=C\c1ccccc1)Cc1cccc2ccccc12 [Naftifine hydrochloride]
> 46 µM | [2H]c1c([2H])c([2H])c2c([nH]c(=S)n2C2CCN(CCCC(=O)c3ccc(F)cc3)CC2)c1[2H] [Timiperone]
> 46 µM | C=C1/C(=C\C=C2/CCC[C@@]3(C)[C@@H]([C@H](C)OCCC(C)(C)O)CC[C@@H]23)C[C@@H](O)C[C@@H]1O [Maxacalcitol]

IC50 of cell viability | SMILES
> 46 µM | NC(CO)(CO)CO [TROMETHAMINE]
> 46 µM | CC(=O)O[C@@H](C)C(=O)OCC[N+](C)(C)C.CC(=O)O[C@@H](C)C(=O)OCC[N+](C)(C)C.O=S(=O)([O-])c1cccc2c(S(=O)(=O)[O-])cccc12 [Aclatonium napadisilate]
> 46 µM | [Na+].[Na+].CO[C@@]1(NC(=O)[C@H](C([O-])=O)C2=CC=C(O)C=C2)[C@@H]3OC\C(=C(/N3C1=O)C([O-])=O)CSC4=NN=N[N]4C [Moxalactam disodium salt]
> 46 µM | Cc1cc(-n2nc3ccc(Cl)cc3n2)c(O)c(C(C)(C)C)c1 [Bumetrizole]
> 46 µM | NC(COP(=O)(O)O)C(=O)O (stereo in doubt) [O-PHOSPHO-L-SERINE]
> 46 µM | COc1ccc([C@@H]2CNC(=O)C2)cc1OC1CCCC1 [Rolipram]
> 46 µM | OC[C@@H]1O[C@@](CO)(OC2O[C@H](CO)[C@@H](O)[C@H](O)[C@@H]2O)[C@@H](O)[C@@H]1O (stereo partly specified) [Sucralox]
> 46 µM | O=C(O)CNC(=O)CNC(=O)CNC(=O)CSC(=O)c1ccccc1 [BENZOYLMERCAPTOACETYLGLYCYLGLYCYLGLYCINE (Betiatide)]
> 46 µM | Cl.O=C(CCCN1CCC(O)(c2cccc(C(F)(F)F)c2)CC1)c1ccc(F)cc1 [Trifluperidol hydrochloride]
> 46 µM | O=C1N\C=N/C2=C1[NH]C=N2 [HYPOXANTHINE]
> 46 µM | CC1CCC(NC(=O)N(CCCl)N=O)CC1 (stereo unspecified) [SEMUSTINE]
> 46 µM | Cl.N[C@@H](Cc1c[nH]cn1)C(=O)O [L-Histidine hydrochloride]
> 46 µM | CN1C(=O)c2ccccc2C1=O [N-Methylphthalimide]
> 46 µM | N[C@H](CO)C(=O)O [D-SERINE]
> 46 µM | [O]=[Bi][O]C(=O)[O][Bi]=[O] [Bismuth subcarbonate]
> 46 µM | CC(=O)NCCCCCC(=O)O [ACEXAMIC ACID]
> 46 µM | CC[N+]1(CC)CCC(=C(c2ccccc2)c2ccccc2)C1C (stereo unspecified) [PRIFINIUM BROMIDE]
> 46 µM | CCN(CC)CCNC(=O)c1c(C)[nH]c(/C=C2\C(=O)Nc3ccc(F)cc32)c1C [Sunitinib malate]
> 46 µM | O=C(OCc1ccccc1)c1ccccc1 [Benzyl benzoate]
> 46 µM | CCCCCCc1ccc(O)cc1O [4-Hexylresorcinol]

IC50 of cell viability | SMILES
> 46 µM | Nc1ccc([S+](N)(=O)[O-])cc1 [Sulfanilamide]
> 46 µM | Clc1ccc([C@H](Cn2ccnc2)OCc2csc3c(Cl)cccc23)c(Cl)c1 [Sertaconazole nitrate]
> 46 µM | Nc1nc(Cl)nc2c1ncn2C1CC(O)C(CO)O1 (stereo unspecified)
> 46 µM | CCCN(CCc1cccs1)[C@H]1CCc2c(O)cccc2C1 [ROTIGOTINE]
> 46 µM | Cn1cnc2c(F)c(Nc3ccc(Br)cc3Cl)c(C(=O)NOCCO)cc21 [Selumetinib]
> 46 µM | CCCC(=O)O[C@@]1(CC[C@H]2C3C[C@H](F)\C4=C\C(=O)\C=C/C4(C)[C@@]3(F)[C@@H](O)CC12C)C(=O)COC(C)=O (stereo partly specified) [DIFLUPREDNATE]
> 46 µM | Cc1ccnc2c1NC(=O)c1cccnc1N2C1CC1 [Nevirapine]
> 46 µM | Cc1cccc(C)c1NC(=O)c1ccccc1C(=O)O [Ftaxilida]
> 46 µM | O=C(O)[C@@H](O)[C@@H](O)[C@@H](O[C@@H]1O[C@@H](CO)[C@@H](O)[C@@H](O)[C@H]1O)[C@@H](O)CO [Lactobionic acid]
> 46 µM | C=CC1=C(C(=O)O)N2C(=O)[C@@H](NC(=O)/C(=N\OCC(=O)O)c3csc(N)n3)[C@@H]2SC1 [Cefixime]
> 46 µM | S=P(N1CC1)(N1CC1)N1CC1 [THIO-TEPA]
> 46 µM | c1ccc(-c2nc[nH]c2-c2ccccc2)cc1 [DIPHENYLIMIDAZOLE]
> 46 µM | O=C(CCCN1CCN(c2ccccn2)CC1)c1ccc(F)cc1 [Azaperone]
> 46 µM | CC[C@@]12CCCN3CCc4c(n(c5ccccc45)C(=O)C1)[C@H]32 [Eburnamonine (-)]
> 46 µM | CC(C)(C)NC[C@H](O)COc1cccc2c1C[C@@H](O)[C@H](O)C2 [Nadolol]
> 46 µM | CCCOc1ccc(C(=O)OCCN(CC)CC)cc1N [Proparacaine hydrochloride]
> 46 µM | NCCCC(N)CC(=O)NC1CNC(=O)C(C2CC(O)NC(N)=N2)NC(=O)/C(=C/NC(N)=O)NC(=O)C(CO)NC(=O)C(CO)NC1=O (stereo unspecified) [VIOMYCIN SULFATE]
> 46 µM | CC(C)[C@H](N)C(=O)OCCOCn1cnc2c(O)nc(N)nc21 [Valacyclovir hydrochloride]
> 46 µM | CC(=O)NC\1=N\C(=O)N(\C=C1)C2COC(COC(=O)C3=CC=CC=C3)O2 (stereo unspecified)
> 46 µM | OCCCc1ccccc1 [3-Phenyl-1-propanol]

SMILES | IC50 of cell viability
C#C[C@]1(OC(=O)CCCCCC)CC[C@H]2C3CCC4=CC(=O)CC[C@@H]4[C@H]3CC[C@@]21C (stereo partly specified) [Noristerat] | > 46 µM
C1CCNCC1.Oc1ncnc2[nH]cc(CN3CCCCC3)c12 | > 46 µM
ClCC1CO1 (stereo unspecified) [1,2-Epoxy-3-chloropropane (Epichlorohydrin)] | > 46 µM
NNc1ccccc1 [PHENYLHYDRAZINE HYDROCHLORIDE] | > 46 µM
CC(N)C(=O)c1ccccc1 [(R)-(+)-Cathinone] | > 46 µM
CN1CC[C@@]23C4OC5=C(O)C=CC(=C25)C[C@@H]1C3\C=C/C4O (stereo partly specified) [Morphine] | > 46 µM
CNC(=O)OCC[N+](C)(C)C.[Cl-] [Methylcarbamylcholine chloride] | > 46 µM
O=Cc1ccccc1 [Benzaldehyde] | > 46 µM
CCCCCCC(=O)O[C@H]1CC[C@H]2[C@@H]3CCC4CC(=O)\C=C(C)/[C@]4(C)[C@H]3CC[C@]12C (stereo partly specified) [METENOLONE ENANTHATE] | > 46 µM
CN1CCN(C(=O)O[C@H]2c3nccnc3C(=O)N2c2ccc(Cl)cn2)CC1 [Eszopiclone] | > 46 µM
C1C\N=C(/N1)C2COC3=C(O2)C=CC=C3 (stereo unspecified) [IDAZOXAN] | > 46 µM
CCC(=O)O[C@@](Cc1ccccc1)(c1ccccc1)[C@@H](C)CN(C)C.O=[S+]([O-])(O)c1ccc2ccccc2c1 [Levopropoxyphene napsylate] | > 46 µM
CCCCCCCCCC(CC)c1ccc(S(=O)(=O)[O-])cc1.[Na+] (stereo unspecified) [Dodecylbenzenesulfonic acid, sodium salt] | > 46 µM
NCC(O)c1cccc(O)c1 (stereo unspecified) [NORFENEFRINE HYDROCHLORIDE] | > 46 µM
CCCCCCCCC(=O)NCc1ccc(O)c(OC)c1 [Nonanamide, N-[(4-hydroxy-3-methoxyphenyl)methyl]-] | > 46 µM
CCCN1CCC[C@@H]2Cc3nc(N)ncc3C[C@H]21 [LY-163,502] | > 46 µM

Source: the supplement of paper PMC3974653
